The target of the first assay is T1, MAT2A homodimer (Homo sapiens, UniProt P31153).
T1 construct: inferred from the Ni sepharose purification and imidazole elution; made in house; host or cells: SF9 insect cells, recombinant baculovirus (Bac to Bac, pFASTBAC1)
T1 sequence (P31153 whole entry): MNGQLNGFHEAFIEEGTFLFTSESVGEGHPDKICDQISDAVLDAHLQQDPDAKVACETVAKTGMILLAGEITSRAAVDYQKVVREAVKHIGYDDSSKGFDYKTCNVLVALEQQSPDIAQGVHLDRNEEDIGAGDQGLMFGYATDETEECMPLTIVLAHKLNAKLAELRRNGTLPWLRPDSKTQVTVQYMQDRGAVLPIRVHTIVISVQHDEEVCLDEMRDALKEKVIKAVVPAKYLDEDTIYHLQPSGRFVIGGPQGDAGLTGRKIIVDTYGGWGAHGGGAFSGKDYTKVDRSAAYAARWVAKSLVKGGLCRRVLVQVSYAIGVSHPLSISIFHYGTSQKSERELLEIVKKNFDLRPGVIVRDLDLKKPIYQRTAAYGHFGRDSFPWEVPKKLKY
Nature of the assay: MAT2A biochemical assay (liberated phosphate, PiColorLock Gold). The note with it: Table 5a; MAT2A biochemical assay; read-out: Enzyme Inhibition. The procedure: Mat2A protein was expressed by recombinant baculovirus in SF9 infected cells using the Bac to Bac system cloned into the pFASTBAC1 vector (Invitrogen, Carlsbad, Calif.). Recombinant MAT2A was isolated from the cell lysate of 150 g of infected cells using HP Ni sepharose column chromatography. Recombinant MAT2A homodimer was eluted with 250 and 500 mM imidazole, and fractions containing MAT2A were identified by sodium dodecyl sulfate polyacrylamide gel electrophoresis and pooled.
Test compound was prepared in 100% dimethyl sulfoxide (DMSO) at 50× the desired final concentration. A 1 μL volume of compound dilution was added to 40 μL of enzyme dilution and the mixture was allowed to equilibrate for 60 minutes at 25° C. The enzymatic assay was initiated by the addition of 10 μL of substrate mix (500 μM ATP, pH 7.0, 400 μM L-methionine in 1× assay buffer), and the mixture was incubated for a further 60 minutes at 25° C. The reaction was halted and the liberated phosphate released by the enzyme in stoichiometric amounts by the production of S-adenosyl methionine (SAM) was measured using the PiColorLock Gold kit (Innova Biosciences, UK). Absolute product amounts were determined by comparison to a standard curve of potassium phosphate buffer, pH 8.0.
As to `COc1ccc(N2Cc3cnc(NCC(F)(F)F)nc3N(c3ccc(SC)cc3)C2=O)cc1` [Example 198, 3-(4-methoxyphenyl)-1-(4-(methylthio)phenyl)-7-((2,2,2-trifluoroethyl)amino)-3,4-dihydropyrimido[4,5-d]pyrimidin-2(1H)-one], the IC50 is below 100 nM.
On to `O=C1N(c2ccnnc2)Cc2cnc(NCC(F)(F)F)nc2N1c1ccc(OC(F)F)cc1` [Example 224, 1-(4-(difluoromethoxy)phenyl)-3-(pyridazin-4-yl)-7-((2,2,2-trifluoroethyl)amino)-3,4-dihydropyrimido[4,5-d]pyrimidin-2(1H)-one], for which the IC50 is 1000 to 10000 nM.
Still for that read-out and setting: the same measure for `COc1ccc(N2C(=O)N(c3ccc4nncn4c3)Cc3cnc(NCC(F)(F)F)nc32)cc1` [Example 229, 3-([1,2,4]triazolo[4,3-a]pyridin-6-yl)-1-(4-methoxyphenyl)-7-((2,2,2-trifluoroethyl)amino)-3,4-dihydropyrimido[4,5-d]pyrimidin-2(1H)-one]: below 100 nM; for `[2H]C([2H])([2H])Oc1ccc(N2C(=O)N(c3ccc4nn(C)cc4c3)C(C)c3ccc(OCC(F)F)nc32)cc1` (centres unmarked) [Example 286, 7-(2,2-difluoroethoxy)-1-(4-(methoxy-d3)phenyl)-4-methyl-3-(2-methyl-2H-indazol-5-yl)-3,4-dihydropyrido[2,3-d]pyrimidin-2(1H)-one]: 100 to 1000 nM.
Same read-out and setting: the same measure for `COc1ccc(N2C(=O)N(c3ccncc3)Cc3cnc(NCC(F)(F)F)nc32)cc1` [Example 230, 1-(4-methoxyphenyl)-3-(pyridin-4-yl)-7-((2,2,2-trifluoroethyl)amino)-3,4-dihydropyrimido[4,5-d]pyrimidin-2(1H)-one]: below 100 nM; for `COc1ccc(N2Cc3cnc(NCC(F)(F)F)nc3N(c3ccc(N(C)C)cc3)C2=O)cc1` [Example 201, 1-(4-(dimethylamino)phenyl)-3-(4-methoxyphenyl)-7-((2,2,2-trifluoroethyl)amino)-3,4-dihydropyrimido[4,5-d]pyrimidin-2(1H)-one]: below 100 nM.
As for `COc1ccc(N2Cc3cnc(NCC(F)(F)F)nc3N(c3ccc4c(c3)CCO4)C2=O)cc1` [Example 253, 1-(2,3-dihydrobenzofuran-5-yl)-3-(4-methoxyphenyl)-7-((2,2,2-trifluoroethyl)amino)-3,4-dihydropyrimido[4,5-d]pyrimidin2(1H)-one], the IC50 was in the range of 100 to 1000 nM.
Same read-out and setting: the same measure for `COc1ccc(N2Cc3cnc(NCC(F)(F)F)nc3N(c3ccc(Cl)c(Cl)c3)C2=O)cc1` [Example 245, 1-(3,4-dichlorophenyl)-3-(4-methoxyphenyl)-7-((2,2,2-trifluoroethyl)amino)-3,4-dihydropyrimido[4,5-d]pyrimidin-2(1H)-one]: 1000 to 10000 nM.
For `COc1ccc(N2Cc3cnc(NCC(F)(F)F)nc3N(c3ccc(C#N)cc3)C2=O)cc1` [Example 251, 4-(3-(4-methoxyphenyl)-2-oxo-7-((2,2,2-trifluoroethyl)amino)-3,4-dihydropyrimido[4,5-d]pyrimidin-1(2H)-yl)benzonitrile], the IC50 fell in the range of 1000 to 10000 nM.
The same measure, in the same setting: the same measure for `COc1ccc(N2Cc3cnc(NCC(F)(F)F)nc3N(c3ccc(O)nc3)C2=O)cc1` [Example 197, 1-(6-hydroxypyridin-3-yl)-3-(4-methoxyphenyl)-7-((2,2,2-trifluoroethyl)amino)-3,4-dihydropyrimido[4,5-d]pyrimidin-2(1H)-one]: 1000 to 10000 nM.
In the case of `COc1ccc(N2Cc3cnc(NCC4CC4)nc3N(c3ccc(O)cc3)C2=O)cc1` [Example 265], the IC50 is 1000 to 10000 nM.
Take `CCC(=O)c1ccc(N2C(=O)N(c3ccc(OC)cc3)Cc3cnc(NCC(F)(F)F)nc32)cc1` [Example 199, 3-(4-methoxyphenyl)-1-(4-propionylphenyl)-7-((2,2,2-trifluoroethyl)amino)-3,4-dihydropyrimido[4,5-d]pyrimidin-2(1H)-one]: the IC50 is 100 to 1000 nM.
On the same count and under the same terms, the same measure for `COc1ccc(N2Cc3cnc(NCC(F)(F)F)nc3N(c3ccc(OC(F)F)nc3)C2=O)cc1` [Example 259]: 100 to 1000 nM; for `COC1CCC(N2C(=O)N(c3ccc4nn(C)cc4c3)Cc3ccc(OCC(F)F)nc32)CC1` (centres unmarked) [Example 427, 7-(2,2-difluoroethoxy)-1-(4-methoxycyclohexyl)-3-(2-methyl-2H-indazol-5-yl)-1H,2H,3H,4H-pyrido[2,3-d]pyrimidin-2-one]: 1000 to 10000 nM.
In the case of `COc1ccc(N2Cc3cnc(NCC(F)(F)F)nc3N(c3cccc(OC)c3)C2=O)cc1` [Example 208, 1-(3-methoxyphenyl)-3-(4-methoxyphenyl)-7-((2,2,2-trifluoroethyl)amino)-3,4-dihydropyrimido[4,5-d]pyrimidin-2(1H)-one], the IC50 was in the range of 100 to 1000 nM.
Same read-out and setting: the same measure for `COC(=O)c1ccc(N2C(=O)N(c3ccc(OC)cc3)Cc3cnc(NCC(F)(F)F)nc32)cc1` [Example 203, methyl 4-(3-(4-methoxyphenyl)-2-oxo-7-((2,2,2-trifluoroethyl)amino)-3,4-dihydropyrimido[4,5-d]pyrimidin-1(2H)-yl)benzoate]: 100 to 1000 nM.
Still for that read-out and setting: the same measure for `COc1ccc(N2C(=O)N(c3ccc4nn(C)cc4c3)Cc3ccc(N(C)C)nc32)cc1` [Example 160, 7-(dimethylamino)-1-(4-methoxyphenyl)-3-(2-methyl-2H-indazol-5-yl)-3,4-dihydropyrido[2,3-d]pyrimidin-2(1H)-one]: 100 to 1000 nM.
Same read-out and setting: the figure for `COc1ccc(N2Cc3cnc(SC)nc3N(c3ccc(C)cc3)C2=O)cc1` [Example 244, 3-(4-methoxyphenyl)-7-(methylthio)-1-(p-tolyl)-3,4-dihydropyrimido[4,5-d]pyrimidin-2(1H)-one] is 1000 to 10000 nM; for `CCOc1cc2c(nn1)CN(c1ccc3nn(C)cc3c1)C(=O)N2c1ccc(OC(F)F)cc1` [Example 292, 5-(4-(difluoromethoxy)phenyl)-3-ethoxy-7-(2-methyl-2H-indazol-5-yl)-7,8-dihydropyrimido[5,4-c]pyridazin-6(5H)-one] it is 1000 to 10000 nM; for `COc1ccc(N2Cc3cnc(NCC(F)(F)F)nc3N(c3ccc4ncccc4c3)C2=O)cc1` [Example 240] it is 100 to 1000 nM.
As to `Cn1cc(N2Cc3cnc(NCC(F)(F)F)nc3N(c3ccc(-c4nc[nH]n4)cc3)C2=O)ccc1=O` [Example 221, 1-(4-(1H-1,2,4-triazol-3-yl)phenyl)-3-(1-methyl-6-oxo-1dihydropyridin-3-yl)-7-((2,2,2-trifluoroethyl)amino)-3,4-dihydropyrimido[4,5-d]pyrimidin-2(1H)-one], the IC50 lay within 100 to 1000 nM.
The same measure, in the same setting: the same measure for `CCOc1ccc2c(n1)N(c1ccc(C)nc1)C(=O)N(c1ccc3nn(C)cc3c1)C2` [Example 151, 7-ethoxy-3-(2-methyl-2H-indazol-5-yl)-1-(6-methylpyridin-3-yl)-3,4-dihydropyrido[2,3-d]pyrimidin-2(1H)-one]: 100 to 1000 nM.
Still for that read-out and setting: the same measure for `COc1ccc(N2Cc3cnc(NCC(F)(F)F)nc3N(c3ccc4nccn4c3)C2=O)cc1` [Example 260]: 1000 to 10000 nM; for `Cn1cc2cc(N3Cc4cc(Cl)c(OCC(F)F)cc4N(c4ccc(OC(F)F)cc4)C3=O)ccc2n1` [Example 284, 6-chloro-7-(2,2-difluoroethoxy)-1-(4-(difluoromethoxy)phenyl)-3-(2-methyl-2H-indazol-5-yl)-3,4-dihydroquinazolin-2(1H)-one]: 100 to 1000 nM; for `COc1ccc(N2Cc3cnc(NCC(F)(F)F)nc3N(c3ccc(C4CC4O)cc3)C2=O)cc1` (centres unmarked) [Example 281, 1-(4-(2-hydroxycyclopropyl)phenyl)-3-(4-methoxyphenyl)-7-((2,2,2-trifluoroethyl)amino)-3,4-dihydropyrimido[4,5-d]pyrimidin-2(1H)-one]: 100 to 1000 nM.
As for `COc1ccc(N2Cc3cnc(NCC(F)(F)F)nc3N(c3ccc(C4(O)CC4)cc3)C2=O)cc1` [Example 278, 1-(4-(1-hydroxycyclopropyl)phenyl)-3-(4-methoxyphenyl)-7-((2,2,2-trifluoroethyl)amino)-3,4-dihydropyrimido[4,5-d]pyrimidin-2(1H)-one], the IC50 was in the range of 100 to 1000 nM.
Same read-out and setting: the figure for `CCOc1ccc2c(n1)N(c1ccc(OC)cc1)C(=O)N(c1ccc(C(=O)NC)cc1)C2` [Example 126, 4-(7-ethoxy-1-(4-methoxyphenyl)-2-oxo-1,2-dihydropyrido[2,3-d]pyrimidin-3(4H)-yl)-N-methylbenzamide] is 100 to 1000 nM; for `CCOc1cc2c(cn1)CN(c1ccc3nn(C)cc3c1)C(=O)N2c1ccc(Cl)cc1` [Example 418, 1-(4-chlorophenyl)-7-ethoxy-3-(2-methyl-2H-indazol-5-yl)-3,4-dihydropyrido[4,3-d]pyrimidin-2(1H)-one] it is 100 to 1000 nM.

The same assay, now with this note: Table 5b; Additional Examples; read-out: Enzyme Inhibition.
With `COc1ccc(N2Cc3cnc(SC)nc3N(c3ccc(Cl)c(C(F)(F)F)c3)C2=O)cc1`, the IC50 is above 10000 nM.
On the same count and under the same terms, the same measure for `COc1ccc(N2Cc3cnc(SC)nc3N(c3cccc(Br)c3)C2=O)cc1`: above 10000 nM; for `COc1ccc(-n2c(=O)c3cnc(NCC(F)(F)F)nc3n(-c3ccc(OCc4ccccc4)cc3)c2=O)cc1`: above 10000 nM.
Same read-out and setting: the figure for `COc1ccc(N2Cc3cnc(NCC(F)(F)F)nc3N(C3CCNC(=O)C3)C2=O)cc1` (centres unmarked) is above 10000 nM.
Still for that read-out and setting: the figure for `COc1ccc(N2Cc3cnc(NCC(F)(F)F)nc3N(c3ccc(-c4ccsc4)cc3)C2=O)cc1` is above 10000 nM; for `COc1ccc(N2Cc3cnc(-n4ccnc4)nc3N(c3ccc(O)cc3)C2=O)cc1` it is above 10000 nM.
Turning to `CCOc1ccc2c(n1)N(c1ccc(OC)cc1)C(=O)N(c1ccc(Cl)cc1)C2`, the IC50 is above 10000 nM.

For the origin of these results see US20220098203A1 (priority 2018, published 2022).
